The nature of the test: Binding affinity against vitronectin receptor was determined.

Regarding `CC(=O)N[C@@H](CC(=O)O)C(=O)Nc1ccc(-c2ccccc2C(N)=O)cc1`, the IC50 (in general, the concentration that inhibits the measured activity by half) amounted to 96 µM.

On to `CC(=O)N[C@@H](CC(=O)O)C(=O)Nc1ccc(-c2ccccc2C(=O)N[C@@H](CCCN=C(N)N)C(=O)O)cc1`, for which the IC50 was determined as 34 µM.

Take `CC(=O)N[C@@H](CC(=O)O)C(=O)Nc1ccc(-c2ccccc2C(=O)O)cc1`: the IC50 is 52 µM.

Compound `CC(=O)N[C@@H](CC(=O)O)C(=O)Nc1cccc(-c2ccccc2C(=O)O)c1` came in with an IC50 of 46 µM.

In turn, `CC(=O)N[C@@H](CC(=O)O)C(=O)Nc1ccc(-c2ccc(C(=O)O)cc2)cc1` had an IC50 of 96 µM.

On to `CC(=O)N[C@@H](CC(=O)O)C(=O)Nc1ccc(-c2cccc(C(=O)O)c2)cc1`, for which the IC50 is 31 µM. Against the preceding compound, the IC50 is about 3.1-fold lower.

`COCC(=O)N[C@@H](CC(=O)O)C(=O)Nc1ccc(-c2ccccc2C(=O)O)cc1` gave a half-inhibitory concentration (IC50) of over 500 µM.

With `CC(=O)N[C@H](CC(=O)O)C(=O)Nc1ccc(-c2ccccc2C(=O)O)cc1`, the IC50 is over 500 µM.

For the compound `CC(C)C(=O)N[C@@H](CC(=O)O)C(=O)Nc1ccc(-c2ccccc2C(=O)O)cc1`, the IC50 is over 500 µM.

For the origin of these results see ChEMBL document CHEMBL1130949, “Construction of a family of biphenyl combinatorial libraries: structure-activity studies utilizing libraries of mixtures” (Bioorg Med Chem Lett, 1998).
